In the test the test system is Pseudomonas aeruginosa. Nature of the test: MIC, standard two-fold dilution test in microtiter. In kind it is cell-based. To be noted: against Pseudomonas aeruginosa. As for the experimental part: Broth cultures are diluted enough so that the final inoculum is about 10^4 colony forming units/ml (CFU/mi).

In turn, teicoplanin showed an MIC of at least 32 microgram/ml.
